According to PubChem BioAssay AID1944 (The Scripps Research Institute Molecular Screening Center, 2009):
Active and inactive are the calls of the source. How the calls were made is not given here.

Molecular target: Replicase polyprotein 1ab (Severe acute respiratory syndrome coronavirus) (UniProt P0C6X7)
Assay: SARS-CoV PLpro inhibitor potency, dose response, counter-screen for SARS-CoV 3CLpro inhibitor project, biochemical, luminescence (AID 1944)
Conditions: SARS-CoV PLpro enzymatic assay

SMILES	IC50
COc1ccc(C(=O)Oc2cccnc2)cc1	> 59.6 µM (inactive)
O=C(/C=C/c1ccc(Cl)c([N+](=O)[O-])c1)NCc1cccnc1	> 59.6 µM (inactive)
COc1ccc(C(=O)n2c(SC)nc3cc4c(cc32)OCCO4)cc1	2.46 µM
COc1cccc(C(C(=O)NCc2ccco2)N(Cc2ccco2)C(=O)Cn2nnc3ccccc32)c1 (configuration not stated)	> 59.6 µM (inactive)
CC(=O)c1cc(-c2ccccc2)[nH]c1N1CCCC1	inactive
CC(C)C12CN(C(=O)c3ccccc3[N+](=O)[O-])CC(C(C)C)(CN(C(=O)c3ccccc3[N+](=O)[O-])C1)C2=O	> 59.6 µM (inactive)
N#CCC(=O)N/N=C/c1c(-c2ccccc2)n(-c2ccccc2)c2ccccc12	> 59.6 µM (inactive)
Cc1ccc(C2CC(c3cccs3)=NN2C(=O)CCl)cc1 (configuration not stated)	inactive
CC(=O)c1c(OC(=O)c2ccco2)c2ccccc2n1C	> 59.6 µM (inactive)
Cc1cc(NC(=O)COn2nnc3ccc(S(C)(=O)=O)cc32)ccc1Br	> 59.6 µM (inactive)
NC(=O)CCn1c(C(=O)c2ccc(Cl)cc2)c2ccccc2[n+]1[O-]	> 59.6 µM (inactive)
CC(=O)NC1C(=O)N(CCN2CCOCC2)c2ccc(Br)cc21 (configuration not stated)	> 59.6 µM (inactive)
Cc1cc(C)c(N(C(=O)Cn2nnc3ccccc32)C(C(=O)NC(C)(C)C)c2ccsc2)c(C)c1 (configuration not stated)	> 59.6 µM (inactive)
CN(C)S(=O)(=O)c1cccc(NC(=O)CSc2cccc3cccnc23)c1	> 59.6 µM (inactive)
Cc1cc(=O)oc2cc(OC(=O)c3ccco3)ccc12	> 59.6 µM (inactive)
CCC(C)c1ccc(N(C(=O)c2ccco2)C(C(=O)NC2CCCC2)c2cccnc2)cc1 (configuration not stated)	inactive
O=C(Cn1nnc2ccccc21)c1ccc(Cl)cc1	3.97 µM
O=C(/C=C/c1ccccc1Cl)Nc1cccnc1	0.0388 µM
CCN(CC)C(=O)Cn1cc(/C=C2\C(=O)NC(=O)N(c3ccccc3F)C2=O)c2ccccc21	> 59.6 µM (inactive)
O=C(O)c1[nH]c2ccccc2c1C(c1cc(Br)ccc1O)c1c(C(=O)O)[nH]c2ccccc12	9.17 µM
CC(=O)Nc1ccc(N(C(=O)Cn2nnc3ccccc32)C(C(=O)NC2CCCC2)c2ccc(O)c(O)c2)cc1 (configuration not stated)	> 59.6 µM (inactive)
O=C1NC(=O)N(c2ccccc2F)C(=O)/C1=C/c1cn(CC(=O)N2CCOCC2)c2ccccc12	> 59.6 µM (inactive)
COc1ccc(C2CC(c3cccs3)=NN2C(=O)CCl)cc1OC (configuration not stated)	> 59.6 µM (inactive)
CCc1nc(N2CCN(C(=O)CCl)CC2)c2c3c(sc2n1)CC(C)CC3 (configuration not stated)	> 59.6 µM (inactive)
O=C(/C=C/c1c(F)cccc1Cl)Nc1cccnc1	0.0628 µM

SMILES	IC50
O=C(CCl)N(CCc1ccccc1)CCc1ccccc1	inactive
CCCCOc1ccc(C(=O)Oc2cccnc2)cc1	1.61 µM
CC(C)c1ccc(N(C(=O)c2csnn2)C(C(=O)NC2CCCC2)c2cccnc2)cc1 (configuration not stated)	> 59.6 µM (inactive)
CCn1nc(-c2ccccc2)nc2c(=O)n(C)c(=O)nc1-2	0.165 µM
COc1ccc2cc(C3(C)NC(=O)N(CC(=O)NCc4ccco4)C3=O)ccc2c1 (configuration not stated)	> 59.6 µM (inactive)
Cc1ccc(C2=NN(C(=O)CCl)C(c3ccco3)C2)o1 (configuration not stated)	> 59.6 µM (inactive)
CCc1ccc2c(c1)C(NC(C)=O)C(=O)N2CCN1CCOCC1 (configuration not stated)	> 59.6 µM (inactive)
Cc1ccc(C(=O)c2c3ccccc3[n+]([O-])n2CCC(N)=O)cc1	8.04 µM
CC(=O)n1cc(N(C(=O)CCl)c2ccc([N+](=O)[O-])cc2)c2ccccc21	> 59.6 µM (inactive)
O=C(Cn1nnc2ccccc21)c1ccc(Br)cc1	2.3 µM
CC(C)c1ccc(N(C(=O)c2ccco2)C(C(=O)NC2CCCC2)c2cccnc2)cc1 (configuration not stated)	> 59.6 µM (inactive)
O=C(Oc1ccc(Cl)cc1N1C(=O)CCC1=O)c1ccco1	> 59.6 µM (inactive)
O=C(OCC(=O)N1c2ccccc2Sc2ccccc21)c1cccnc1	> 59.6 µM (inactive)
CCC(C)(C)NC(=O)C(c1cccn1C)N(C(=O)Cn1nnc2ccccc21)c1ccc(NC(C)=O)cc1 (configuration not stated)	> 59.6 µM (inactive)
O=C1C(=O)N(CCCc2ccccc2)c2ccccc21	inactive
Cc1cc(C)c(C)c(S(=O)(=O)N2CCN(C(=O)c3cc(=O)[nH]c4ccccc34)CC2)c1C	> 59.6 µM (inactive)
CC1CCC2C(=O)N(c3cc(Cl)ccc3OC(=O)c3ccco3)C(=O)C2C1 (configuration not stated)	> 59.6 µM (inactive)
Cn1nc(-c2ccc(Cl)cc2)nc2c(=O)n(C)c(=O)nc1-2	0.111 µM
O=C(c1cc(=O)[nH]c2ccccc12)N1CCN(c2cccc(C(F)(F)F)c2)CC1	> 59.6 µM (inactive)
Cc1nnc(SC(=O)N2c3ccccc3Sc3ccccc32)s1	> 59.6 µM (inactive)
O=C(O)c1ccc2ncsc2c1	7.39 µM
O=C(O)COc1ccc(Br)cc1C(c1c(C(=O)O)[nH]c2ccccc12)c1c(C(=O)O)[nH]c2ccccc12	inactive
O=C(Oc1ccc(Br)cc1C(=O)/C=C/c1ccccc1F)c1ccco1	> 59.6 µM (inactive)
C[C@@]12C(=O)N(c3cccc(Br)c3)C(=O)N1[C@H](c1ccc(Cl)cc1)[C@@H]1C(=O)N(C3CCCCC3)C(=O)[C@@H]12	> 59.6 µM (inactive)
Cc1cc(C(=O)CCl)c(C)n1-c1cccc([N+](=O)[O-])c1	> 59.6 µM (inactive)

SMILES	IC50
O=C(Nc1ccccc1)NN(C(=O)CCl)c1ccccc1	> 59.6 µM (inactive)
COc1cccc(C(C(=O)Nc2ccc(F)cc2)N(C(=O)Cn2nnc3ccccc32)C2CC2)c1 (configuration not stated)	> 59.6 µM (inactive)
COc1ccc(N(Cc2cc(=O)[nH]c3ccccc23)C(=O)CCl)cc1	> 59.6 µM (inactive)
Cc1sc(NC(=O)CCl)c(C(=O)c2ccccc2)c1C	> 59.6 µM (inactive)
O=C1C(=O)N(C/C=C/c2ccccc2)c2ccccc21	> 59.6 µM (inactive)
COc1ccc2c(c1)C(=O)C(=O)N2CC1COc2ccccc2O1 (configuration not stated)	> 59.6 µM (inactive)
Cc1ccc(C(=O)c2c3ccc(C(F)(F)F)cc3[n+]([O-])n2CCC(N)=O)cc1	> 59.6 µM (inactive)
COc1cccc(/C=N/NC(=S)Nc2cccnc2)c1	inactive
COc1ccc(C(C(=O)NCC2CCCO2)N(C(=O)Cn2nnc3ccccc32)c2ccc(NC(C)=O)cc2)cc1 (configuration not stated)	> 59.6 µM (inactive)
COC(=O)c1ccc(OC(=O)CN2C(=O)c3ccccc3C2=O)cc1	inactive
NC(=O)CCn1c(C(=O)c2cc(Cl)c(N)c(Cl)c2)c2ccccc2[n+]1[O-]	> 59.6 µM (inactive)
O=c1[nH]c(=O)n(-c2ccccc2F)c(O)c1/C=C1\C=Nc2ccccc21	> 59.6 µM (inactive)
CC(C)C[C@H](NC(=O)c1nc[nH]c1C(=O)NCc1ccc(CNC(=O)OC(C)(C)C)cc1)C(=O)OC(C)(C)C	> 59.6 µM (inactive)
Cc1cccc(N2CCN(C(=O)c3cc(=O)[nH]c4ccccc34)CC2)c1C	> 59.6 µM (inactive)
COc1ccc(N(C(=O)Cn2nnc3ccccc32)C2(C(=O)NC3CCCC3)CCCCC2)cc1	> 59.6 µM (inactive)
Cc1cc(NC(=O)COC(=O)C(Nc2ccc(C(F)(F)F)cc2Cl)C(C)C)no1 (configuration not stated)	> 59.6 µM (inactive)
Cc1ccc(/C=C/C(=O)c2cc(Br)ccc2OC(=O)c2ccco2)cc1	> 59.6 µM (inactive)
CCOc1ccc2c(c1)C(=O)C(=O)N2CC1COc2ccccc2O1 (configuration not stated)	> 59.6 µM (inactive)
O=C(Nc1ccc(OCC(F)(F)C(F)F)c(C(F)(F)F)c1)c1ccccc1O	0.596 µM
COc1cc(C2CC(c3cccs3)=NN2C(=O)CCl)ccc1OC(F)F (configuration not stated)	> 59.6 µM (inactive)
CC(=O)NC1C(=O)N(CCN2CCOCC2)c2ccc(F)cc21 (configuration not stated)	> 59.6 µM (inactive)
CCC(C)(C)NC(=O)C(c1ccc(O)cc1)N(C(=O)Cn1nnc2ccccc21)c1ccc(NC(C)=O)cc1 (configuration not stated)	> 59.6 µM (inactive)
NC(=O)CCn1c(C(=O)c2cccc([N+](=O)[O-])c2)c2ccccc2[n+]1[O-]	> 59.6 µM (inactive)
CC1(C)C2CC=C(/C=N/NC(=S)Nc3cccnc3)C1C2 (configuration not stated)	> 59.6 µM (inactive)
O=C(Oc1cccnc1)c1ccc(Cl)cc1	7.99 µM

SMILES	IC50
Cc1ccc(-c2cc(NC(=O)c3ccccc3[N+](=O)[O-])n[nH]2)cc1	inactive
COc1cc2c(cc1OC)C(c1cc(Br)ccc1F)N(C(=O)CCl)CC2 (configuration not stated)	> 59.6 µM (inactive)
Cc1cccc2c1N(CCOc1ccccc1)C(=O)C2=O	> 59.6 µM (inactive)
COc1cccc(C(C(=O)NCC2CCCO2)N(C(=O)Cn2nnc3ccccc32)c2ccc(NC(C)=O)cc2)c1 (configuration not stated)	> 59.6 µM (inactive)
COc1ccc(C2C(O)C(c3c[nH]c4ccccc34)=NN2C(=O)CCl)cc1 (configuration not stated)	> 59.6 µM (inactive)
O=Cc1cn(Cc2ccccc2)nc1-c1cccnc1	> 59.6 µM (inactive)
O=C1C(=O)N(CC2COc3ccccc3O2)c2ccccc21 (configuration not stated)	> 59.6 µM (inactive)
Nc1ncc(Br)cc1S(=O)(=O)Nc1cc(C(F)(F)F)cc(C(F)(F)F)c1	> 59.6 µM (inactive)
Cc1ccc(C(=O)n2cnc3ccccc32)cc1C	9.11 µM
O=C(N/N=C\c1c(O)ccc2ccccc12)c1cncc(Br)c1	8.21 µM
O=C(c1cc(=O)[nH]c2ccccc12)N1CCN(c2ccccc2)CC1	> 59.6 µM (inactive)
COc1ccccc1OCCNC(=O)c1cc(=O)[nH]c2ccccc12	> 59.6 µM (inactive)
COc1cc(/C=N\NC(=O)Cn2nnc3ccccc32)cc(OC)c1OC	> 59.6 µM (inactive)
O=C(CSc1ccccn1)Nc1nonc1[N+](=O)[O-]	> 59.6 µM (inactive)
O=C(NCc1ccco1)C(c1ccco1)N(C(=O)Cn1nnc2ccccc21)c1ccc2c(c1)CCC2 (configuration not stated)	> 59.6 µM (inactive)
O=C(Cc1ccc(Cl)c(Cl)c1)Nc1cccnc1	inactive
Cc1cc(C)n(C(=O)c2ccc(C)c(Br)c2)n1	inactive
Cc1ccc(C(=O)Oc2ccc3c(c2)ncn3C)cc1	0.577 µM
Cc1ccc2[nH]c3c(c2c1)CN(C(=O)CN1c2ccc(F)cc2CCC1C)CC3 (configuration not stated)	> 59.6 µM (inactive)
CCc1cc(=O)oc2cc(OC(=O)c3ccco3)ccc12	> 59.6 µM (inactive)
CCc1cccc(CC)c1N(COC)C(=O)Cn1nnc2ccccc21	> 59.6 µM (inactive)
COc1ccccc1/C=C/C(=O)c1cc(Br)ccc1OC(=O)c1ccco1	inactive
